Laboratory results taken from patent publication US12728137B2, “Methods of treating cancer with a combination of mithramycin and immunotherapy” (University of South Florida, priority 2019, dated 2026).

System: CT26 cells
Assay: CT26 cell viability with TGFβI and/or Mit-A (CellTiter-Glo)
Assay type: cell-based, mouse
Details: LY2109761 (5 μM) and/or 150 nM Mit-A for 48 hrs; FIG. 9
Method: FIG. 9 depicts a bar graph of cell viability assayed by CellTiter-Glo of CT26 cells that were cultured in the presence of TGFβI, LY2109761 (5 μM) and/or 150 nM Mit-A for 48 hrs.
Mit-A potentiates the inhibitory effects of transforming growth factor β (TGFβ): TGFβ activated stroma is one of the defining features of MSS CRCs^33. […] However, inhibition of TGFβ in these tumors induced a potent anti-tumor response. Since Sp1 is implicated in TGFβ induced tumor invasion, whether inhibition of TGFβ signaling will promote sensitization of CT26 cells to Mit-A was examined.

`c1ccc(-c2nn3c(c2-c2ccnc4cc(OCCN5CCOCC5)ccc24)CCC3)nc1` [LY2109761] was tested, and the CT26 cell viability was “did not inhibit”.
